Assay results as given in patent US20040009904A1, “APL immunoreactive peptides, conjugates thereof and methods of treatment for aPL antibody-mediated pathologies” (priority 1995, published 2004).
Bridge positions count the residues as written; N and C are the ends. Peptide text beside a SMILES is read from it.

Molecular target: ACA-6701
Assay: Competitive fluorescence polarization assay (cFP)
Assay type: binding, human
Experimental: The above described dbFP assay provides binding constants for FITC-labeled peptides and requires on the order of 0.5 mg of purified antibody. The cFP assay provides binding constants for peptides that lack the FITC group and it consumes less antibody, on the order of 10 μg. The cFP assay is modified from that reported in PanVera Applications Guide (1994) PanVera Corporation such that it consumes 50-fold less antibody. Briefly, antibody (ACA 6701) is mixed with trace FITC labeled peptide (CB2*-F) and enough time is allowed for equilibrium to be reached. This was 1 hour for ACA 6701 and CB2*-F. Increasing concentrations of the unlabeled peptide being tested (CB2* or 3B10) are then added to the tube. After each addition, sufficient time, approximately 15 minutes, is allowed for equilibrium to be reached and the mP value was read. […] This Δ(mP) value should be 20 or more mP units to insure reliable results.
As unlabeled (no FITC) peptide (I) is added to inhibit F from binding to R, Y decreases from its maximum value of PH′ to a plateau of PL which should agree with that in Equation 1. These titrations are shown in FIGS. 26 and 27 for displacement of CB2*-F from ACA-6701 by CB2* and 3B10, respectively. The equation describing this titration was derived and is: [formula]
where PL is the same as in Equation 1. […]

CC(C)C[C@@H]1NC(=O)[C@H](CC(C)C)NC(=O)[C@H](CC(C)C)NC(=O)[C@@H](NC(=O)[C@@H]2CCCN2C(=O)CNC(=O)[C@H](C)N)CSSC[C@@H](C(=O)N2CCC[C@H]2C(=O)NCC(=O)O)NC(=O)[C@H](CCCNC(=N)N)NC(=O)[C@H](CC(=O)O)NC(=O)[C@@H]2CCCN2C(=O)[C@H](C)NC1=O [3B10, AGPCLLLAPDRCPG] (H-AGPCLLLAPDRCPG-OH; disulfide 4-12)
Ki (cFP, displacement of CB2*-F from ACA-6701): 313 nM
binding to ACA-6701 less than binding of CB2* (versus CB2*): 9 fold
